Read-outs that look alike come from different tables or passages of the source.
What was measured:
CDK7/CycH/Mat1 = CDK7/CycH/Mat1 (Homo sapiens, UniProt P50613); assay: CDK7 Enzymatic Activity Assay (Lance Kinase Activity Assay, FRET); type: biochemical
Procedure: (§1) This protocol describes how the Lance Kinase Activity Assay was performed to determine IC50 values of compounds of general formula (I) against CDK/Cyclin complexes. The principle behind this enzymatic assay is based upon the phosphorylation of the Ulight-Peptide Substrat. It is detected by using a specific EU-labeled anti-phospho peptide antibody.
(§2) Binding of an inhibitor to the kinase prevents phosphorylation of the Ulight-MBP Substrat, resulting in a loss of FRET.
CDK7 Enzymatic Activity Assay
(§3) The compounds of general formula (I) exemplary summarized in Table 1 were diluted from a 10 mM DMSO stock solution 1:10 in a total volume of 15 μl DMSO. This compound predilution was then serial diluted 1:3 over 8 steps in DMSO and briefly spun down. Each compound solution was now diluted 1:20 in Enzymatic Buffer (HEPES: 50 mM, pH: 7.5; MgCl2: 10 mM; EGTA: 1 mM; DTT: 2 mM; Tween-20: 0.01%), mixed thoroughly and spun down.
(§4) For positive controls, 2 μl of DMSO working solution were mixed with 6 μl CDK7/CycH/Mat1/substrate working solution and 2 μl ATP working solution. Positive and negative controls were calculated from at least 8 different wells. The 384 well plates were mixed in a Teleshaker plate mixer (Beckman Coulter, Brea, Calif., USA) at 2000 rpm for 40 sec, and incubated for 1 h at room temperature before addition of 10 μl LANCE Detection Buffer (1×; EDTA: […]; Eu-Anti-P-MBP: 4 nM) per well. Plates were mixed in a Teleshaker plate mixer (Beckman Coulter, Brea, Calif., USA) at 2000 rpm for 40 sec, followed by incubation with Detection Buffer for 1 h, and reading. […] IC50 values were determined from the sigmoidal dose response curves with the software Quattro Workflow (Quattro GmbH, Munich, Germany).

CDK9/Cyclin T1 = CDK9/Cyclin T1 (Homo sapiens, UniProt P50750); assay: CDK9 Enzymatic Activity Assay (Lance Kinase Activity Assay, FRET); type: biochemical; conditions: Table 5B, class symbols per IC50 [nM] ranges of b581; read-out: CDK9: Selectivity of CDK7 inhibition over CDK9 inhibition
Sequence of CDK9/Cyclin T1 (P50750 whole entry): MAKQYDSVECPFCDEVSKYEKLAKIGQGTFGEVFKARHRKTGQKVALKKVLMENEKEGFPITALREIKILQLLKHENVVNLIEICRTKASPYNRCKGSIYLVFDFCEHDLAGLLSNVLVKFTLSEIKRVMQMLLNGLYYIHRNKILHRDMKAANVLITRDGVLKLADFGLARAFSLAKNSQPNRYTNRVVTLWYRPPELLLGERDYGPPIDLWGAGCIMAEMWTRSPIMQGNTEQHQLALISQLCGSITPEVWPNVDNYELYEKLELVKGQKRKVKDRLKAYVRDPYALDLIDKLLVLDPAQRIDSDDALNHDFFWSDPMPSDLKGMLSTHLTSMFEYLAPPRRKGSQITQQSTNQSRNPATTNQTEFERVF
Sequence of CDK9/Cyclin T1 (O60563 whole entry partner): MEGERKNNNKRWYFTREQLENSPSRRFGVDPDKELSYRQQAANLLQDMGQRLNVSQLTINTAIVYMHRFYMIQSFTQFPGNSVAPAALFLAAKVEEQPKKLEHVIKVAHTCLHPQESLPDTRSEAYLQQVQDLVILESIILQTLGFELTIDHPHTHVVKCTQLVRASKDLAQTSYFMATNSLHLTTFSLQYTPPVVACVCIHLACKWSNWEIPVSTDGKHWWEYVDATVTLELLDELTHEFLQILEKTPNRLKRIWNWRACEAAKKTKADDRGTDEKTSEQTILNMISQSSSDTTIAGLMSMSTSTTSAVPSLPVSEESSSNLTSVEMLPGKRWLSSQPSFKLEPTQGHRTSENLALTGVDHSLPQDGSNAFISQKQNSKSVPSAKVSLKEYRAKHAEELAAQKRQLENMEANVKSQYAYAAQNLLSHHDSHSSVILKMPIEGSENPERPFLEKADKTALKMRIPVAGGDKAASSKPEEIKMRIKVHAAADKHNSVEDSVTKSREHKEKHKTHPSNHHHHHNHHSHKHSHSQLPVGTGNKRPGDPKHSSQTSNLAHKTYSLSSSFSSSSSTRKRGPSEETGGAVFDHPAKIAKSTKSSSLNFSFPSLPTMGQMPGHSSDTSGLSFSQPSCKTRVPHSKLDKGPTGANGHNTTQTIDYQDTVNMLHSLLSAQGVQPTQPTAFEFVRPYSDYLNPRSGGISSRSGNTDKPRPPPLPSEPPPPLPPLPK
Procedure: as §1, §2
CDK9 Enzymatic Activity Assay
as §3
as §4, with “CDK9/cyclin T1/substrate” for “CDK7/CycH/Mat1/substrate”

[1] = CDK7/CycH/Mat1, 25 μM ATP final, class ranges, read-out: CDK7: IC50 [nM] for CDK7 inhibition

Sequence of CDK7/CycH/Mat1 (P50613 whole entry): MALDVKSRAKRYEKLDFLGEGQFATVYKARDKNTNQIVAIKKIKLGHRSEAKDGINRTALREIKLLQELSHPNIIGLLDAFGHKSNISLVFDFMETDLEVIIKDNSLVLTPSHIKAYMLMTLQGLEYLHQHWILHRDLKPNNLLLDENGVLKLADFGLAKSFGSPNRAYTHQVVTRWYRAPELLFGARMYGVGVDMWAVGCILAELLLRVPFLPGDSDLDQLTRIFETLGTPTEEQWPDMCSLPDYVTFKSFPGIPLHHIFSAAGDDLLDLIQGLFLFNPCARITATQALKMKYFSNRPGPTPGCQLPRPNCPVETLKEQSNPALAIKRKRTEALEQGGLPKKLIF

IC50 (CDK7/CycH/Mat1; Table 6, read-out: IC50 CDK7) [nM] | IC50 (CDK9/Cyclin T1) [nM] | IC50 (CDK7/CycH/Mat1; [1]) [nM] | IC50 (CDK7/CycH/Mat1; Table 7, read-out: IC50 CDK7) [nM] | SMILES
< 5 | – | – | – | CC(C)c1cnn2c(NCc3ccccc3)nc(O[C@@H]3CCCNC3)nc12 [C-II, reference compound]
– | 50 to 500 | 5 to 10 | – | CC(C)c1cnn2c(NCc3ccccc3N(C)C)nc(OC3CCN(C)CC3)nc12 [(VII-54), N-(2-(dimethylamino)benzyl)-8-isopropyl-2-((1-methylpiperidin-4-yl)oxy)pyrazolo[1,5-a][1,3,5]triazin-4-amine]
– | > 2500 | < 5 | – | CC(C)c1cnn2c(NCc3ccccc3-n3cccn3)nc(N3CCC34CCNCC4)nc12 [(VIII-34), N-(2-(1H-pyrazol-1-yl)benzyl)-8-isopropyl-2-(1,7-diazaspiro[3.5]nonan-1-yl)pyrazolo[1,5-a][1,3,5]triazin-4-amine]
– | > 2500 | 10 to 25 | – | CC(C)c1cnn2c(NCc3c(Cl)cccc3Cl)nc(OC3CCN(C)CC3)nc12 [(VII-63), N-(2,6-dichlorobenzyl)-8-isopropyl-2-((1-methylpiperidin-4-yl)oxy)pyrazolo[1,5-a][1,3,5]triazin-4-amine]
– | > 2500 | < 5 | – | CC(C)c1cnn2c(NCc3ccccc3-n3cccn3)nc(N3CCC4(CCNC4)C3)nc12 (stereo not shown) [(VIII-03), N-(2-(1H-pyrazol-1-yl)benzyl)-8-isopropyl-2-(2,7-diazaspiro[4.4]nonan-2-yl)pyrazolo[1,5-a][1,3,5]triazin-4-amine]
– | > 2500 | < 5 | – | CC(C)c1cnn2c(N[C@@H](C)c3ccccc3Cl)nc(O[C@@H]3CCCNC3)nc12 [(VII-28), N-((S)-1-(2-chlorophenyl)ethyl)-8-isopropyl-2-((R)-piperidin-3-yloxy)pyrazolo[1,5-a][1,3,5]triazin-4-amine]
– | > 2500 | < 5 | – | CC(C)c1cnn2c(NCc3ccccc3-n3cccn3)nc(N3CCCC34CCNCC4)nc12 [(VIII-22), N-(2-(1H-pyrazol-1-yl)benzyl)-8-isopropyl-2-(1,8-diazaspiro[4.5]decan-1-yl)pyrazolo[1,5-a][1,3,5]triazin-4-amine]
– | > 2500 | 5 to 10 | – | COc1ccccc1[C@H](C)Nc1nc(N[C@@H]2CCCNC2)nc2c(C(C)C)cnn12 [(VIII-31), 8-isopropyl-N4-((S)-1-(2-methoxyphenyl)ethyl)-N2-((R)-piperidin-3-yl)pyrazolo[1,5-a][1,3,5]triazine-2,4-diamine]
– | > 2500 | < 5 | – | CC(C)Oc1ccccc1CNc1nc(OC2CCNCC2)nc2c(C(C)C)cnn12 [(VII-17), N-(2-isopropoxybenzyl)-8-isopropyl-2-(piperidin-4-yloxy)pyrazolo[1,5-a][1,3,5]triazin-4-amine]
– | 50 to 500 | 5 to 10 | – | Cc1ccccc1CNc1nc(OC2CCN(C)CC2)nc2c(C(C)C)cnn12 [(VII-53), 8-isopropyl-N-(2-methylbenzyl)-2-((1-methylpiperidin-4-yl)oxy)pyrazolo[1,5-a][1,3,5]triazin-4-amine]
– | > 2500 | 10 to 25 | – | Cc1cccc(Cl)c1CNc1nc(OC2CCN(C)CC2)nc2c(C(C)C)cnn12 [(VII-62), N-(2-chloro-6-methylbenzyl)-8-isopropyl-2-((1-methylpiperidin-4-yl)oxy)pyrazolo[1,5-a][1,3,5]triazin-4-amine]
– | – | < 5 | – | CC(C)c1cnn2c(NCc3ccccc3Oc3ccccc3)nc(O[C@@H]3CCCNC3)nc12 [(VII-48), (R)-8-isopropyl-N-(2-phenoxybenzyl)-2-(piperidin-3-yloxy)pyrazolo[1,5-a][1,3,5]triazin-4-amine]
– | > 2500 | > 25 | – | CC(C)c1cnn2c(NCc3ccccc3N3CCC3=O)nc(O[C@@H]3CCCNC3)nc12 [(VII-40), (R)-1-(2-(((8-isopropyl-2-(piperidin-3-yloxy)pyrazolo[1,5-a][1,3,5]triazin-4-yl)amino)methyl)phenyl)azetidin-2-one]
– | – | 10 to 25 | – | CC(C)c1cnn2c(NCc3ccccc3-n3cccn3)nc(OC3CNC3)nc12 [(VII-141), N-(2-(1H-pyrazol-1-yl)benzyl)-2-(azetidin-3-yloxy)-8-isopropylpyrazolo[1,5-a][1,3,5]triazin-4-amine]
< 5 | – | – | – | CC(C)c1cnn2c(NCc3ccccc3)nc(OC3CCN(C)CC3)nc12 [C-I, reference compound]
– | > 2500 | < 5 | – | CC(C)c1cnn2c(NCc3ccccc3-n3cccn3)nc(N3CC4(CCNC4)C3)nc12 [(VIII-02), N-(2-(1H-pyrazol-1-yl)benzyl)-8-isopropyl-2-(2,6-diazaspiro[3.4]octan-2-yl)pyrazolo[1,5-a][1,3,5]triazin-4-amine]
– | > 2500 | 5 to 10 | – | CC(C)c1cnn2c(NCc3ccccc3-n3cccn3)nc(N3CCC4(CCCNC4)C3)nc12 (stereo not shown) [(VIII-27), N-(2-(1H-pyrazol-1-yl)benzyl)-8-isopropyl-2-(2,7-diazaspiro[4.5]decan-2-yl)pyrazolo[1,5-a][1,3,5]triazin-4-amine]
– | > 2500 | < 5 | – | COc1ccccc1[C@H](C)Nc1nc(OC2CCNCC2)nc2c(C(C)C)cnn12 [(VII-15), (S)-8-isopropyl-N-(1-(2-methoxyphenyl)ethyl)-2-(piperidin-4-yloxy)pyrazolo[1,5-a][1,3,5]triazin-4-amine]
– | > 2500 | 10 to 25 | – | CC(C)c1cnn2c(NCc3ccccc3-n3cccn3)nc(N3CCCC4(CCCNC4)C3)nc12 (stereo not shown) [(VIII-14), N-(2-(1H-pyrazol-1-yl)benzyl)-8-isopropyl-2-(2,8-diazaspiro[5.5]undecan-2-yl)pyrazolo[1,5-a][1,3,5]triazin-4-amine]
– | – | < 5 | – | CC(C)c1cnn2c(NCc3ccccc3-c3ccco3)nc(O[C@@H]3CCCNC3)nc12 [(VII-50), (R)-N-(2-(furan-2-yl)benzyl)-8-isopropyl-2-(piperidin-3-yloxy)pyrazolo[1,5-a][1,3,5]triazin-4-amine]
– | > 2500 | 5 to 10 | – | CC(C)c1cnn2c(NCc3ccccc3-n3cccn3)nc(N3CCC4(CCNCC4)CC3)nc12 [(VIII-26), N-(2-(1H-pyrazol-1-yl)benzyl)-8-isopropyl-2-(3,9-diazaspiro[5.5]undecan-3-yl)pyrazolo[1,5-a][1,3,5]triazin-4-amine]
– | > 2500 | < 5 | – | Cc1nccn1-c1ccccc1CNc1nc(OC2CCNCC2)nc2c(C(C)C)cnn12 [(VII-24), 8-isopropyl-N-(2-(2-methyl-1H-imidazol-1-yl)benzyl)-2-(piperidin-4-yloxy)pyrazolo[1,5-a][1,3,5]triazin-4-amine]
– | – | < 5 | – | CC(C)c1cnn2c(NCc3ccccc3-c3ncco3)nc(O[C@@H]3CCCNC3)nc12 [(VII-49), (R)-8-isopropyl-N-(2-(oxazol-2-yl)benzyl)-2-(piperidin-3-yloxy)pyrazolo[1,5-a][1,3,5]triazin-4-amine]
– | – | > 25 | – | CC(C)c1cnn2c(NCc3ccccc3C(F)(F)F)nc(OC3CCN(C)CC3)nc12 [(VII-058), 8-isopropyl-2-((1-methylpiperidin-4-yl)oxy)-N-(2-(trifluoromethyl)benzyl)pyrazolo[1,5-a][1,3,5]triazin-4-amine]
– | – | 10 to 25 | – | CC(C)c1cnn2c(NCc3ccccc3NC(=O)Nc3ccccc3)nc(O[C@@H]3CCCNC3)nc12 [(VII-111), (R)-1-(2-(((8-isopropyl-2-(piperidin-3-yloxy)pyrazolo[1,5-a][1,3,5]triazin-4-yl)amino)methyl)phenyl)-3-phenylurea]
– | – | < 5 | – | CC(C)c1cnn2c(NCc3ccccc3Oc3ccccc3)nc(OC3CCN(C)CC3)nc12 [(VII-47), 8-isopropyl-2-((1-methylpiperidin-4-yl)oxy)-N-(2-phenoxybenzyl)pyrazolo[1,5-a][1,3,5]triazin-4-amine]
– | – | < 5 | < 5 | CC(=O)Nc1ccccc1CNc1nc(O[C@@H]2CCCNC2)nc2c(C(C)C)cnn12 [(VII-51), (R)-N-(2-(((8-isopropyl-2-(piperidin-3-yloxy)pyrazolo[1,5-a][1,3,5]triazin-4-yl)amino)methyl)phenyl)acetamide]
– | – | < 5 | – | CC(C)c1cnn2c(NCc3ccccc3-n3cccn3)nc(OC3CC4(CNC4)C3)nc12 [(VII-04), N-(2-(1H-pyrazol-1-yl)benzyl)-2-(2-azaspiro[3.3]heptan-6-yloxy)-8-isopropylpyrazolo[1,5-a][1,3,5]triazin-4-amine]
